Experiments:
in vitro = settings: for remaining at 4320 h: human
Experimental: Serum samples from healthy controls that were used in this study concerned leftover aliquots (stored at −80°C) that were collected in February 2011 [18]. In addition, citrate plasma, heparin plasma, EDTA plasma and serum for stability studies was drawn in the afternoon from healthy volunteers (n = 5), known for having fasted morning hepcidin levels above the lower limit of detection (>0.5 nM) in September 2012. Fresh samples were measured within 2–4 hrs hours after blood drawing and stored in aliquots at various temperatures for prolonged incubation.
Heparin plasma QC samples (n = 2), high and low (HiQC2011 and LoQC2011), were obtained in November 2011 by pooling sample leftover samples from IC patients and iron-depleted HFE-hemochromatosis patients, respectively. Serum QC samples (n = 2), high and low (HiQC2009 and LoQC2009), were obtained in April 2009 from 2 blood donors from the local blood donation centre. To obtain the high QC sample, serum of one of the donors with a native hepcidin concentration <1 nM was spiked with synthetic hepcidin-25 from Peptide International (PI, Louisville, KY, USA) to a concentration of 9 nM.
WCX-TOF MS was performed between October 2011 and March 2013 as described previously by a combination of WCX bead-based hepcidin enrichment followed by TOF-MS [6]. As internal standards for quantification were used: i) synthetic hepcidin-24 (custom made Peptide International, 2673.9 Da; [5]); ii) novel custom made heavy hepcidin-25^+40 (see below, Table 1). Mass-to-charge (m/z) spectra were generated by using MALDI-TOF MS (Microflex LT, Bruker Daltonics). Spectra were analyzed by using Bruker Daltonics FlexAnalysis software. A detailed protocol of this method is described in [6]. Total hepcidin concentration was defined as the sum of hepcidin-25, -24, -22, and -20 concentrations.
Using the novel heavy hepcidin-25 internal standard, we assessed changes in hepcidin-25 and the smaller isoforms in various samples containing various anticoagulants ex vivo at room temperature (RT), 4°C, −20°C and −80°C. More specifically, changes in hepcidin concentrations relative to those found in freshly collected samples were determined i) at storage at RT and 4°C on day 0 (fresh samples), 1 (14–22 hrs), 2, 3, and 7 days after sampling/storage, ii) at −20°C after 1 week, and after 1, 4 and 6 months of storage and iii) at −80°C at after 6 months of storage. We also assessed the effect of the addition of protease inhibitors on the stability of hepcidin concentrations of heparin plasma of IC patients at RT during a 1 week storage. To this end, before storage we used 1 tablet of protease inhibitor (Complete, Mini, Roche Diagnostics, Mannheim, Germany) solved in 200 µL PBS, of which 20 µL was added to 1 ml plasma. Finally, we used our QC charts to assess the stability of hepcidin concentrations in heparin plasma and serum QC aliquots stored at −80°C for 2 years.

Structure (SMILES): CC[C@H](C)[C@@H]1NC(=O)[C@@H](NC(=O)[C@@H](NC(=O)[C@@H]2CCCN2C(=O)[C@H](Cc2ccccc2)NC(=O)[C@H](Cc2c[nH]cn2)NC(=O)[C@@H](NC(=O)[C@@H](N)CC(=O)O)[C@@H](C)O)[C@@H](C)CC)CSSC[C@@H](C(=O)N[C@@H](CCCCN)C(=O)N[C@H](C(=O)O)[C@@H](C)O)NC(=O)[C@@H]2CSSC[C@H](NC(=O)[C@H](Cc3ccccc3)NC1=O)C(=O)N[C@H]1CSSC[C@H](NC(=O)[C@H](CCCCN)NC(=O)[C@H](CO)NC(=O)[C@H](CCCNC(=N)N)NC(=O)[C@H](Cc3c[nH]cn3)NC(=O)[C@@H]3CSSC[C@H](NC(=O)CNC1=O)C(=O)N3)C(=O)NCC(=O)N[C@@H](CCSC)C(=O)N2 [Hepcidin-25]
- stable at -80°C for, QC heparin plasma (in vitro; QC heparin plasma samples, heavy hepcidin internal standard): at least 1.5 years
- stable at -80°C for, QC serum (in vitro; QC serum samples, former hepcidin-24 internal standard): 2 years
- Hepcidin level after 6 months at -80°C, EDTA plasma (in vitro; average, 5 controls, CV 5): 96%
- Hepcidin level after 6 months at -80°C, citrate plasma (in vitro; average, 5 controls, CV 5): 96%
- remaining at 4320 h (in vitro; heparin plasma): 95%
- remaining at 4320 h (in vitro; serum): 94%
- average decrease in hepcidin-25 after 6 months at -80°C (in vitro; serum, heparin, EDTA and citrate plasma, 5 healthy volunteers, not significant): 4–6%
- Hepcidin level after one day at 4°C, EDTA plasma (average, % of fresh, 10 IC patients and 5 controls, results <1.0 nM deleted, CV (Hep-25/-24/-22/-20) 11/6/11/22, n = 15/8/6/9): 101%
- Hepcidin level after one week at 4°C, EDTA plasma (average, % of fresh, 7 days, 10 IC patients and 5 controls, CV (Hep-25/-24/-22/-20) 9/8/18/21, n = 15/8/6/9, hepcidin-20 in stored EDTA plasma unreliable (additional peak)): 101%
- stability at 4°C for 0–7 days (heparin and EDTA plasma (10 IC patients, 5 controls), citrate plasma and serum (5 controls)): remained stable
